# Where no end group is shown, it is not given here.
# Test system: TrkA receptors
# Test: TrkA receptor phosphorylation in primary E18 basal forebrain neurons (immunoprecipitation, anti-phosphotyrosine Western blot)
# Type: cell-based, rat
# Conditions: 10 nM, 2 hours
# Description: Primary cultures of E18 basal forebrain neurons were prepared as described in the Materials and Methods section of Example 2 and treated with PACAP38 (10 nM) or NGF (10 ng/ml) for various times. Activation of TrkA receptors was assessed by immunoprecipitation and Western blotting with anti-phosphotyrosine antibody.
# Immunoprecipitated and Immunoblotting. PC12 (615) cells were maintained in DMEM containing 10% FBS supplemented with 100 units/ml penicillin, 100 μg/ml streptomycin, and 2 mM glutamine plus 200 μg/ml G418. Cells were placed in serum free medium overnight before experiments. Cell lysates from PC12(615) cells, or basal forebrain cells were incubated in lysis buffer (1% Nonidet P-40) for 4 hrs to overnight at 4° C. with anti-pan-Trk polyclonal antibody followed by incubation with protein A-Sepharose beads. Equivalent amounts of protein were analyzed for each condition. The beads were washed five times with lysis buffer, and the immune complexes were boiled in SDS-sample buffer and loaded on SDS-PAGE gels for immunoblot analysis. The immunoreactive protein bands were detected by enhanced chemiluminescence (Amersham Pharmacia).
# Basal Forebrain Cell Cultures. […] Cells were counted and plated on culture wells coated with 0.01 mg/ml poly-D-lysine overnight. […]
substance,measurement,value
"PACAP27: 27 amino acid form of PACAP (HSDGIFTDSYSRYRKQMAVKKYLAAVL; ends and bridges not checked; UniProt P18509 132-158, looked up, fragment)",Phosphorylation of TrkA receptors,gave rise to phosphorylated TrkA receptors
